The results in this text go back to patent publication US20240254118A1, “PRMT5 INHIBITORS AND USES THEREOF” (Gilead Sciences, Inc., priority 2022, published 2024).

pEC50: −log10 of the molar value. A value given as a limit tells only on which side of the number the result lay.

In assay [1] the test system is HCT116 MTAP-deleted cells. The experiment in a line: Cell viability assay (CellTiter-Glo, 7 days), HCT116 MTAP-deleted. As to conditions: Homo sapiens, HCT-116, 168 h.
The subject of assay [2] is SDMA signal (PRMT5 inhibition) in HCT116 MTAP-deleted cells. The experiment in a line: Symmetric di-methyl arginine image-based high content screen assay (SDMA assay), HCT116 MTAP-deleted. Format: cell-based. As to conditions: SDMA assay; for pEC50: Homo sapiens, HCT-116, 72 h, 3 days of treatment, cell line not given, taken as HCT116 MTAP-deleted, read-out: EC50 (SDMA assay). In outline:
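Read-out: per-cell mean SDMA immunofluorescence (Alexa Fluor 488 secondary), cells segmented by DAPI on a high-content imager. Compound exposure in HCT116 MTAP-deleted cells lasted until fixation on Day 3; overnight 4° C primary anti-SDMA antibody staining.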

The mark [3] stands for this setting: taken as HCT116 WT versus MTAP-deleted.

In the case of `CN1CCN(N(Cc2ccc(C(F)(F)F)cn2)C(=O)c2cc3c(cc2F)nc(N)c2cnn(C)c23)C(=O)C1` [Example 383, 4-amino-7-fluoro-1-methyl-N-(4-methyl-2-oxo-piperazin-1-yl)-N-[[5-(trifluoromethyl)-2-pyridyl]methyl]pyrazolo[4,3-c]quinoline-8-carboxamide], the CC50 in assay [1] is less than 100 nM. Moreover, in assay [2], the pEC50 is 8.30 to 9.00. In assay [2] (setting [3]), the “EC50 selectivity (SDMA assay)” value turned out to be 168.

In assay [1], `CN(C(=O)[C@@H]1CCO1)N(Cc1ccc(C(F)(F)F)cc1F)C(=O)c1ccc2nc(N)c3cnn(C)c3c2c1` [Example 198, 4-amino-N-[[2-fluoro-4-(trifluoromethyl)phenyl]methyl]-N′,1-dimethyl-N′-[(2S)-oxetane-2-carbonyl]pyrazolo[4,3-c]quinoline-8-carbohydrazide] yielded a CC50 of less than 100 nM. Besides, the pEC50 in assay [2] was greater than 9.00. In addition, in assay [2] (setting [3]), the “EC50 selectivity (SDMA assay)” value is listed as 57.

`CC(=O)N(C)N(Cc1ccc(-c2cnc(C(F)(F)F)cc2C)cc1F)C(=O)c1ccc2nc(N)c3cnn(C)c3c2c1` [Example 220, N′-acetyl-4-amino-N-(2-fluoro-4-(4-methyl-6-(trifluoromethyl)pyridin-3-yl)benzyl)-N′,1-dimethyl-1H-pyrazolo[4,3-c]quinoline-8-carbohydrazide]: the CC50 in assay [1] was less than 100 nM. In addition, in assay [2], the pEC50 is 8.30 to 9.00. Further, the “EC50 selectivity (SDMA assay)” value in assay [2] (setting [3]) is recorded as 15.

As to `CC(=O)N(C)N(Cc1ccc(C2CC2)nc1F)C(=O)c1ccc2nc(N)c3cnn(C)c3c2c1` [Example 228, N′-acetyl-4-amino-N-((6-cyclopropyl-2-fluoropyridin-3-yl)methyl)-N′,1-dimethyl-1H-pyrazolo[4,3-c]quinoline-8-carbohydrazide], the CC50 in assay [1] is less than 100 nM. Also, the pEC50 in assay [2] was 8.30 to 9.00. For the same compound, in assay [2] (setting [3]), the “EC50 selectivity (SDMA assay)” value is 205.

In assay [1], `CC(=O)N(C)N(Cc1cc2ccccc2s1)C(=O)c1ccc2nc(N)c3cnn(C)c3c2c1` [Example 213, N′-Acetyl-4-amino-N-(benzothiophen-2-ylmethyl)-N′,1-dimethyl-pyrazolo[4,3-c]quinoline-8-carbohydrazide] registered a CC50 of less than 100 nM. Also, the pEC50 in assay [2] was greater than 9.00. Further, the “EC50 selectivity (SDMA assay)” value in assay [2] (setting [3]) turned out to be 209.

On to `CC(=O)N(C)N(Cc1nc2cc(C(F)(F)F)ccc2s1)C(=O)c1ccc2nc(N)c3cnn(C)c3c2c1` [Example 1], for which the CC50 in assay [1] is less than 100 nM. The pEC50 in assay [2] is greater than 9.00. In addition, the “EC50 selectivity (SDMA assay)” value in assay [2] (setting [3]) came out at 122.

`CC(=O)N(C1COC1)N(Cc1ccc(C(F)(F)F)cc1F)C(=O)c1ccc2nc(N)c3cnn(C)c3c2c1` [Example 340, N′-acetyl-4-amino-N-(2-fluoro-4-(trifluoromethyl)benzyl)-1-methyl-N′-(oxetan-3-yl)-1H-pyrazolo[4,3-c]quinoline-8-carbohydrazide]: in assay [1], the CC50 is less than 100 nM. For the same compound, in assay [2], the pEC50 is greater than 9.00. In addition, the “EC50 selectivity (SDMA assay)” value in assay [2] (setting [3]) was 50.

As for `CC(=O)N(C)N(Cc1ccccc1F)C(=O)c1ccc2nc(N)c3cnn(C)c3c2c1` [Example 181, N′-acetyl-4-amino-N-(2-fluorobenzyl)-N′,1-dimethyl-1H-pyrazolo[4,3-c]quinoline-8-carbohydrazide], the CC50 in assay [1] was 100 to 1000 nM. Further, in assay [2], the pEC50 was 8.30 to 9.00. The “EC50 selectivity (SDMA assay)” value in assay [2] (setting [3]) came out at 441.

Take `Cn1ncc2c(N)nc3cc(F)c(C(=O)N(Cc4ccc(C(F)(F)F)cn4)N4CCOCC4)cc3c21` [Example 142, 4-amino-7-fluoro-1-methyl-N-morpholino-N-((5-(trifluoromethyl)pyridin-2-yl)methyl)-1H-pyrazolo[4,3-c]quinoline-8-carboxamide]: in assay [1], the CC50 was less than 100 nM. Also, in assay [2], the pEC50 was greater than 9.00. The “EC50 selectivity (SDMA assay)” value in assay [2] (setting [3]) is recorded as 32.

Compound `CC(=O)N(C)N(Cc1ccn(-c2ccc(F)cc2)n1)C(=O)c1ccc2nc(N)c3cnn(C)c3c2c1` [Example 432, N′-acetyl-4-amino-N-((1-(4-fluorophenyl)-1H-pyrazol-3-yl)methyl)-N′,1-dimethyl-1H-pyrazolo[4,3-c]quinoline-8-carbohydrazide] returned a CC50 in assay [1] of less than 100 nM. In addition, the pEC50 in assay [2] is 8.30 to 9.00. Further, the “EC50 selectivity (SDMA assay)” value in assay [2] (taken as HCT116 WT vs MTAP-deleted) was 297.

Regarding `CCN(C(=O)C1CC1)N(Cc1ccc(C(F)(F)F)cn1)C(=O)c1ccc2nc(N)c3cnn(C)c3c2c1` [Example 288, 4-amino-N′-(cyclopropanecarbonyl)-N′-ethyl-1-methyl-N-((5-(trifluoromethyl)pyridin-2-yl)methyl)-1H-pyrazolo[4,3-c]quinoline-8-carbohydrazide], the CC50 in assay [1] was less than 100 nM. In addition, the pEC50 in assay [2] was greater than 9.00. For the same compound, the “EC50 selectivity (SDMA assay)” value in assay [2] (setting [3]) came to 267.

Consider `CN(C(=O)N1CCC1)N(Cc1ccc(C(F)(F)F)cn1)C(=O)c1ccc2nc(N)c3cnn(C)c3c2c1` [Example 126, 4-amino-N′-(azetidine-1-carbonyl)-N′,1-dimethyl-N-((5-(trifluoromethyl)pyridin-2-yl)methyl)-1H-pyrazolo[4,3-c]quinoline-8-carbohydrazide], for which, in assay [1], the CC50 was less than 100 nM. In addition, the pEC50 in assay [2] is greater than 9.00. Further, the “EC50 selectivity (SDMA assay)” value in assay [2] (setting [3]) worked out at 45.

In assay [1], `Cn1c(CN(C(=O)c2ccc3nc(N)c4ccccc4c3c2)N2CCCC2=O)nc2ccccc21` [Example 79, 6-Amino-N-[(1-methylbenzimidazol-2-yl)methyl]-N-(2-oxopyrrolidin-1-yl) phenanthridine-2-carboxamide] gave a CC50 of 100 to 1000 nM. For the same compound, the pEC50 in assay [2] is 8.30 to 9.00. Moreover, the “EC50 selectivity (SDMA assay)” value in assay [2] (setting [3]) was found to be 406.

In assay [1], `CC(=O)NN(Cc1nc2cc(C(F)(F)F)ccc2s1)C(=O)c1ccc2nc(N)c3cnn(C)c3c2c1` [Example 215, N′-acetyl-4-amino-1-methyl-N-[[5-(trifluoromethyl)-1,3-benzothiazol-2-yl]methyl]pyrazolo[4,3-c]quinoline-8-carbohydrazide] returned a CC50 of less than 100 nM. The pEC50 in assay [2] was greater than 9.00. In assay [2] (setting [3]), the “EC50 selectivity (SDMA assay)” value came to 90.

In turn, `CCOC(=O)NN(Cc1ccc(C(F)(F)F)cn1)C(=O)c1ccc2nc(N)c3cnn(C)c3c2c1` [Example 45, ethyl N-[(4-amino-1-methyl-pyrazolo[4,3-c]quinoline-8-carbonyl)-[[5-(trifluoromethyl)-2-pyridyl]methyl]amino]carbamate] yielded a CC50 in assay [1] of less than 100 nM. In assay [2], the pEC50 is greater than 9.00. The “EC50 selectivity (SDMA assay)” value in assay [2] (setting [3]) was determined as 63.

In turn, `Cn1ncc2c(N)nc3ccc(C(=O)N(Cc4cn5cc(Cl)ccc5n4)N4CCCC4=O)cc3c21` [Example 123, 4-Amino-N-[(6-chloroimidazo[1,2-a]pyridin-2-yl)methyl]-1-methyl-N-(2-oxopyrrolidin-1-yl)pyrazolo[4,3-c]quinoline-8-carboxamide] returned a CC50 in assay [1] of less than 100 nM. The pEC50 in assay [2] was greater than 9.00. The “EC50 selectivity (SDMA assay)” value in assay [2] (setting [3]) was determined as 39.

`CN(C(=O)C1(C(F)F)CC1)N(Cc1ccc(C(F)(F)F)cn1)C(=O)c1ccc2nc(N)c3cnn(C)c3c2c1` [Example 339, 4-amino-N′-(1-(difluoromethyl)cyclopropane-1-carbonyl)-N′,1-dimethyl-N-((5-(trifluoromethyl)pyridin-2-yl)methyl)-1H-pyrazolo[4,3-c]quinoline-8-carbohydrazide] had a CC50 in assay [1] of 100 to 1000 nM. For the same compound, in assay [2], the pEC50 was 8.30 to 9.00. In addition, the “EC50 selectivity (SDMA assay)” value in assay [2] (setting [3]) worked out at 280.

The compound `CN(C(=O)C12CC(C1)C2)N(Cc1ccc(Cl)cn1)C(=O)c1ccc2nc(N)c3cnn(C)c3c2c1` [Example 140, 4-amino-N′-(bicyclo[1.1.1]pentane-1-carbonyl)-N-((5-chloropyridin-2-yl)methyl)-N′,1-dimethyl-1H-pyrazolo[4,3-c]quinoline-8-carbohydrazide] had a CC50 in assay [1] of less than 100 nM. Further, the pEC50 in assay [2] is greater than 9.00. The “EC50 selectivity (SDMA assay)” value in assay [2] (setting [3]) amounted to 456.

On to `Cn1ncc2c(N)nc3ccc(C(=O)N(Cc4ccc(C(F)(F)F)c(F)c4)N4CCCC4=O)cc3c21` [Example 15, 4-amino-N-(3-fluoro-4-(trifluoromethyl)benzyl)-1-methyl-N-(2-oxopyrrolidin-1-yl)-1H-pyrazolo[4,3-c]quinoline-8-carboxamide], for which the CC50 in assay [1] was less than 100 nM. The pEC50 in assay [2] was 8.30 to 9.00. In assay [2] (setting [3]), the “EC50 selectivity (SDMA assay)” value was 23.

As to `[2H]C([2H])([2H])N(C(=O)C1CC1)N(Cc1ncc(C(F)(F)F)cc1F)C(=O)c1ccc2nc(N)c3cnn(C([2H])([2H])[2H])c3c2c1` [Example 278, 4-amino-N′-(cyclopropanecarbonyl)-N-((3-fluoro-5-(trifluoromethyl)pyridin-2-yl)methyl)-N′,1-bis(methyl-d3)-1H-pyrazolo[4,3-c]quinoline-8-carbohydrazide], the CC50 in assay [1] is less than 100 nM. In addition, the pEC50 in assay [2] was greater than 9.00. The “EC50 selectivity (SDMA assay)” value in assay [2] (setting [3]) was determined as 121.

On to `CN(C(=O)C1CC1)N(Cc1ccc(F)cc1F)C(=O)c1ccc2nc(N)c3cnn(C)c3c2c1` [Example 122, 4-amino-N′-(cyclopropanecarbonyl)-N-(2,4-difluorobenzyl)-N′,1-dimethyl-1H-pyrazolo[4,3-c]quinoline-8-carbohydrazide], for which the CC50 in assay [1] is less than 100 nM. Besides, the pEC50 in assay [2] was greater than 9.00. Further, the “EC50 selectivity (SDMA assay)” value in assay [2] (setting [3]) was determined as 261.

In assay [1], `CC(=O)N(C)N(Cc1ccc(C(F)(F)F)cn1)C(=O)c1ccc2nc(N)c3cnccc3c2c1` [Example 72, N′-acetyl-5-amino-N′-methyl-N-((5-(trifluoromethyl)pyridin-2-yl)methyl)benzo[c][2,7]naphthyridine-9-carbohydrazide] returned a CC50 of 100 to 1000 nM. In addition, the pEC50 in assay [2] was 8.30 to 9.00. Moreover, the “EC50 selectivity (SDMA assay)” value in assay [2] (setting [3]) came to 142.
